Publication PMC3560175 (Virology Journal, 2012)

What was measured:
[1] = system: K103N RT mutant VSV-G pseudotyped HIV-1 vector; format: cell-based; details: read-out: Antiviral EC50 K103N
in vitro = details: human
[2] = system: V106A RT mutant VSV-G pseudotyped HIV-1 vector; format: cell-based; details: read-out: Antiviral EC50 V106A
[3] = system: wild type VSV-G pseudotyped HIV-1 vector; experiment: microbe, parasite or virus in culture; format: cell-based; details: Human immunodeficiency virus 1, HEK-293T; 293T cells, average ± SD of two independent experiments in duplicate; read-out: Antiviral EC50 wt
[4] = system: Y181C RT mutant VSV-G pseudotyped HIV-1 vector; format: cell-based; details: read-out: Antiviral EC50 Y181C
[5] = system: Y188L RT mutant VSV-G pseudotyped HIV-1 vector; format: cell-based; details: read-out: Antiviral EC50 Y188L
[6] = system: HIV-1 vector (NL4-3 Nef + IRES rluc); experiment: microbe, parasite or virus in culture; format: cell-based
[7] = system: VSVg-pseudotyped HIV-1 vector (pNL4-3LucR+E-); experiment: microbe, parasite or virus in culture; format: cell-based
[8] = system: VSVg-pseudotyped HIV-1 vector; format: cell-based
[9] = system: early and late HIV-1 reverse transcription products; experiment: Real-time PCR quantitation of early and late viral DNA in infected 293T cells; format: cell-based; details: 5 μM added 1 hr before infection, 24 hrs post infection
[10] = molecular target: T1, HIV-1 reverse transcriptase (RT) (Human immunodeficiency virus type 1 group M subtype B, UniProt P03366); experiment: biochemical
T1 construct: recombinant purified HIV-1 reverse transcriptase (RT) activity; purchased Ambion, Austin, TX

pLai3Luc2 HIV-1 vector = experiment: microbe, parasite or virus in culture; format: cell-based

Procedure for PBMCs: PBMCs were activated in PBMC Growth Medium (RPMI 1640 with 15% FBS, Pen/Strep, 25 mM HEPES, 100 U/ml IL-2) supplemented with 5 μg/ml PHA-P. Two days after activation, the PBMC’s were maintained in the same medium (without PHA-P) for 3 more days. Aliquots of 2x10^4 PBMCs were then plated in 80 μl PBMC Growth Medium in each well of white 96 well plates (CoStar) and returned to the incubator overnight. […] Eight replicate samples were then set up, with 10 μl aliquots of the serially-diluted compounds added to the cells, and preincubated at 37°C for one hour prior to virus challenge. The cells were then challenged with 10 μl per well of the NL4-3 Nef+ IRES rluc virus vector bringing the total volume in each well to 100 μl final. The plates were incubated at 37°C for five days and then viral infection was monitored by adding 100 μl per well of Renilla-Glo Luciferase Reagent (Promega) and measuring the resultant luciferase activities using a Topcount-HTS (PerkinElmer). Cell toxicity was assessed on a duplicate plate of samples by adding 100 μl Cell-Titer Glo Reagent (Promega) and reading on a Topcount-HTS.

Row | SMILES | EC50 [1] | CC50 (in vitro) | EC50 [2] | EC50 [3] | EC50 [4] | EC50 [5] | CC50 at 24 h (in vitro) | selectivity index [6] | EC50 ([6]; Human immunodeficiency virus 1, NL43, PBMC, 120 h) | decrease of luciferase activity (library screen) [7] | selectivity index [7] | EC50 ([7]; Human immunodeficiency virus 1, HEK-293T, read-out: EC50 (luciferase-based infectivity)) | combination effect with AZT (isobologram) [8] | combination effect with NVP (isobologram) [8] | synthesis of early and late viral DNA products [9] | IC50 [10] | cell toxicity (PBMCs) | selectivity index (pLai3Luc2 HIV-1 vector) | EC50 (pLai3Luc2 HIV-1 vector; Human immunodeficiency virus 1, CEM-GFP, 48 h)
1 | Cc1ccnc2c1NC(=O)c1cccnc1N2C1CC1 [NVP, nevirapine] | 841 ± 49 nM | > 50000 nM | 1260 ± 159 nM | 19 ± 2 nM | 2879 ± 6 nM | > 20000 nM |  |  |  |  |  |  |  |  |  |  |  |  | 
2 | Cc1cn([C@H]2C[C@H](N=[N+]=[N-])[C@@H](CO)O2)c(=O)[nH]c1=O [AZT, 3’-azido-3’-deoxythymidine] | 14 ± 2 nM |  | 15 ± 1 nM | 14 ± 3 nM | 6 nM | 11 ± 5 nM | > 50000 nM |  |  |  |  |  |  |  |  |  |  |  | 
3 | Clc1ccccc1-c1nc2ccccn2c1NC1CCCCC1 [F2] | 3230 ± 127 nM |  | 1280 ± 357 nM | 165 ± 39 nM | 1680 ± 271 nM | > 20000 nM |  | > 11.6 | 865 ± 222 nM | more than 50% | 88.1 | 387 ± 46 nM | synergy | additivity | blocked the synthesis of both early and late viral DNA products | 2550 ± 365 nM | absence of cell toxicity | 29.5 | 862 ± 88 nM
